Measurements as given in ChEMBL document CHEMBL5137011, “Semisynthetic pleuromutilin antimicrobials with therapeutic potential against methicillin-resistant Staphylococcus aureus by targeting 50S ribosomal subunit” (Eur J Med Chem, 2022).
≈ marks a conversion by molar mass, not a printed value.

How the values were obtained:
[1] = target: Bacterial 70S ribosome; assay: Binding affinity to Staphylococcus aureus ATCC 43300 50S ribosomal subunit assessed as equilibrium dissociation constant by surface plasmon resonance analysis; format: subcellular
[2] = target: Bacterial 70S ribosome (Bacteria) (UniProt P0A7V0+P60723+P0AG67+P0A7R5+P0A7R9+P0A7S3+P0A7S9+P0AG59+P0ADZ4+P0A7T3+P0AG63+P0A7T7+P0A7U3+P0A7U7+P68679+P0A7V3+P0A7V8+P0A7W1+P02358+P02359+P0A7W7+P0A7X3+P0A7J3+P0A7J7+P0AA10+P0ADY3+P02413+P0ADY7+P0AG44+P0C018+P0A7K6+P0A7L0+P0A7L3+P0AG48+P61175+P0ADZ0+P60624+P68919+P0A7L8+P0A7M2+P0A7M6+P60422+P0AG51+P0A7N1+P0A7M9+P0A7N4+P0A7N9+P0A7P5+P0A7Q1+Q2EEQ2+P0A7Q6+P60438+P62399+P0AG55+P0A7K2); assay: Binding affinity to Staphylococcus aureus ATCC 43300 50S ribosomal subunit assessed as association rate constant by surface plasmon resonance analysis; format: subcellular
[3] = tested on: Staphylococcus aureus; assay: Antibacterial activity against methicillin-resistant Staphylococcus aureus ATCC 43300 assessed as log reduction in colony forming unit at 4 times MIC measured after 3 hrs by time kill assay; format: functional
[4] = tested on: Staphylococcus aureus; assay: Antibacterial activity against Staphylococcus aureus SA17 assessed as inhibition of bacterial growth incubated for 16 hrs by CLSI based broth microdilution method; format: functional
[5] = tested on: Staphylococcus aureus; assay: Antibacterial activity against methicillin-resistant Staphylococcus aureus ATCC 43300 assessed as log reduction in colony forming unit at 4 times MIC measured after 24 hrs by time kill assay; format: functional
[6] = tested on: Staphylococcus aureus; assay: Antibacterial activity against Staphylococcus aureus ATCC 29213 assessed as inhibition of bacterial growth incubated for 16 hrs by CLSI based broth microdilution method; format: functional
[7] = tested on: Staphylococcus aureus; assay: Antibacterial activity against Staphylococcus aureus 144 assessed as inhibition of bacterial growth incubated for 16 hrs by CLSI based broth microdilution method; format: functional
[8] = tested on: Staphylococcus aureus; assay: Antibacterial activity against methicillin-resistant Staphylococcus aureus ATCC 43300 assessed as inhibition of bacterial growth incubated for 16 hrs by CLSI based broth microdilution method; format: functional
[9] = tested on: Staphylococcus aureus; assay: Antibacterial activity against methicillin-resistant Staphylococcus aureus ATCC 43300 infected in ICR/Swiss mouse […] thigh infection model assessed as log reduction in bacterial load in thigh at 20 mg/kg, iv administered as bolus injection measured after 24 hrs; format: functional
[10] = tested on: RAW264.7; assay: Cytotoxicity against mouse RAW264.7 cells assessed as reduction in cell viability at 8 ug/ml incubated for 16 hrs by MTT assay; format: toxicity, cell-based; conditions: raw264.7, 16 h, dose 8 µg/ml
[11] = tested on: 16HBE14o-; assay: Cytotoxicity against human 16HBE14o- cells assessed as reduction in cell viability at 8 ug/ml incubated for 16 hrs by MTT assay; format: toxicity, cell-based; conditions: dose 8 µg/ml
[12] = tested on: Staphylococcus aureus; assay: Antibacterial activity against Staphylococcus aureus AD3 assessed as inhibition of bacterial growth incubated for 16 hrs by CLSI based broth microdilution method; format: functional
[13] = tested on: 16HBE14o-; assay: Cytotoxicity against human 16HBE14o- cells assessed as reduction in cell viability at 8 ug/ml incubated for 16 hrs by MTT assay relative to control; format: toxicity, cell-based; conditions: at 8 µg/mL

## C=C[C@]1(C)C[C@@H](OC(=O)CSc2nnc(-c3ccccc3OC)[nH]2)[C@]2(C)[C@H](C)CC[C@]3(CCC(=O)[C@H]32)[C@@H](C)[C@@H]1O
[1]
  Kd: 121 µM
[2]
  Ka: 4.99 10^2/Ms
[3]
  Activity: -1.53 log10CFU/ml
[4]
  MIC: 0.125 µg/mL (≈ 0.22 µM)
[5]
  Activity: -7.1 log10CFU/ml
[6]
  MIC: 0.125 µg/mL (≈ 0.22 µM)
[7]
  MIC: 0.125 µg/mL (≈ 0.22 µM)
[8]
  MIC: 0.0625 µg/mL (≈ 0.11 µM)
[9]
  Activity: -1.27 log10CFU/ml
[10]
  Activity: Non-Toxic
[11]
  Activity: Non-Toxic
[12]
  MIC: 0.0625 µg/mL (≈ 0.11 µM)

## C=C[C@]1(C)C[C@@H](OC(=O)CSc2nnc(-c3ccccc3[N+](=O)[O-])[nH]2)[C@]2(C)[C@H](C)CC[C@]3(CCC(=O)[C@H]32)[C@@H](C)[C@@H]1O
[4]
  MIC: 0.125 µg/mL (≈ 0.215 µM)
[6]
  MIC: 0.125 µg/mL (≈ 0.215 µM)
[7]
  MIC: 0.25 µg/mL (≈ 0.429 µM)
[8]
  MIC: 0.25 µg/mL (≈ 0.429 µM)
[10]
  Activity: Non-Toxic
[11]
  Activity: Non-Toxic
[12]
  MIC: 0.25 µg/mL (≈ 0.429 µM)

## C=C[C@]1(C)C[C@@H](OC(=O)CSc2nnc(-c3ccccc3C)[nH]2)[C@]2(C)[C@H](C)CC[C@]3(CCC(=O)[C@H]32)[C@@H](C)[C@@H]1O
[4]
  MIC: 0.5 µg/mL (≈ 0.906 µM)
[6]
  MIC: 0.25 µg/mL (≈ 0.453 µM)
[7]
  MIC: 1 µg/mL (≈ 1.81 µM)
[8]
  MIC: 0.0625 µg/mL (≈ 0.113 µM)
[10]
  Activity: Non-Toxic
[11]
  Activity: Non-Toxic
[12]
  MIC: 0.125 µg/mL (≈ 0.227 µM)

## C=C[C@]1(C)C[C@@H](OC(=O)CSc2nnc(-c3ccc(C(F)(F)F)cc3)[nH]2)[C@]2(C)[C@H](C)CC[C@]3(CCC(=O)[C@H]32)[C@@H](C)[C@@H]1O
[4]
  MIC: > 32 µg/mL
[13]
  Activity: > 50%
[6]
  MIC: 2 µg/mL (≈ 3.3 µM)
[7]
  MIC: > 32 µg/mL
[8]
  MIC: 0.5 µg/mL (≈ 0.825 µM)
[10]
  Activity: Non-Toxic
[12]
  MIC: 0.25 µg/mL (≈ 0.413 µM)

## C=C[C@]1(C)C[C@@H](OC(=O)CSc2nnc(-c3cccc([N+](=O)[O-])c3)[nH]2)[C@]2(C)[C@H](C)CC[C@]3(CCC(=O)[C@H]32)[C@@H](C)[C@@H]1O
[4]
  MIC: 0.5 µg/mL (≈ 0.858 µM)
[6]
  MIC: 0.25 µg/mL (≈ 0.429 µM)
[7]
  MIC: 2 µg/mL (≈ 3.43 µM)
[8]
  MIC: 0.125 µg/mL (≈ 0.215 µM)
[10]
  Activity: Non-Toxic
[11]
  Activity: Non-Toxic
[12]
  MIC: 0.0625 µg/mL (≈ 0.107 µM)

## C=C[C@]1(C)C[C@@H](OC(=O)CSc2nnc(-c3ccccc3C(F)(F)F)[nH]2)[C@]2(C)[C@H](C)CC[C@]3(CCC(=O)[C@H]32)[C@@H](C)[C@@H]1O
[4]
  MIC: 4 µg/mL (≈ 6.6 µM)
[6]
  MIC: 0.5 µg/mL (≈ 0.825 µM)
[7]
  MIC: 8 µg/mL (≈ 13.2 µM)
[8]
  MIC: 0.25 µg/mL (≈ 0.413 µM)
[10]
  Activity: Non-Toxic
[11]
  Activity: Non-Toxic
[12]
  MIC: 0.25 µg/mL (≈ 0.413 µM)

## C=C[C@]1(C)C[C@@H](OC(=O)CSc2nnc(-c3cccc(Cl)c3)[nH]2)[C@]2(C)[C@H](C)CC[C@]3(CCC(=O)[C@H]32)[C@@H](C)[C@@H]1O
[3]
  Activity: -1 log10CFU/ml
[4]
  MIC: 0.125 µg/mL (≈ 0.218 µM)
[5]
  Activity: -9.23 log10CFU/ml
[6]
  MIC: 0.125 µg/mL (≈ 0.218 µM)
[7]
  MIC: 0.25 µg/mL (≈ 0.437 µM)
[8]
  MIC: 0.0625 µg/mL (≈ 0.109 µM)
[10]
  Activity: Non-Toxic
[11]
  Activity: Non-Toxic
[12]
  MIC: 0.125 µg/mL (≈ 0.218 µM)

## C=C[C@]1(C)C[C@@H](OC(=O)CSc2nnc(-c3ccc(C)cc3)[nH]2)[C@]2(C)[C@H](C)CC[C@]3(CCC(=O)[C@H]32)[C@@H](C)[C@@H]1O
[4]
  MIC: 0.5 µg/mL (≈ 0.906 µM)
[6]
  MIC: 0.125 µg/mL (≈ 0.227 µM)
[7]
  MIC: 1 µg/mL (≈ 1.81 µM)
[8]
  MIC: 0.125 µg/mL (≈ 0.227 µM)
[10]
  Activity: Non-Toxic
[11]
  Activity: Non-Toxic
[12]
  MIC: 0.0625 µg/mL (≈ 0.113 µM)

## C=C[C@]1(C)C[C@@H](OC(=O)CSc2nnc(-c3cccc(C)c3)[nH]2)[C@]2(C)[C@H](C)CC[C@]3(CCC(=O)[C@H]32)[C@@H](C)[C@@H]1O
[4]
  MIC: 1 µg/mL (≈ 1.81 µM)
[6]
  MIC: 0.25 µg/mL (≈ 0.453 µM)
[7]
  MIC: 4 µg/mL (≈ 7.25 µM)
[8]
  MIC: 0.25 µg/mL (≈ 0.453 µM)
[10]
  Activity: Non-Toxic
[11]
  Activity: Non-Toxic
[12]
  MIC: 0.0625 µg/mL (≈ 0.113 µM)

## C=C[C@]1(C)C[C@@H](OC(=O)CSc2nnc(-c3ccc(OC)cc3)[nH]2)[C@]2(C)[C@H](C)CC[C@]3(CCC(=O)[C@H]32)[C@@H](C)[C@@H]1O
[4]
  MIC: 0.5 µg/mL (≈ 0.881 µM)
[6]
  MIC: 0.25 µg/mL (≈ 0.44 µM)
[7]
  MIC: 1 µg/mL (≈ 1.76 µM)
[8]
  MIC: 0.125 µg/mL (≈ 0.22 µM)
[10]
  Activity: Non-Toxic
[11]
  Activity: Non-Toxic
[12]
  MIC: 0.0625 µg/mL (≈ 0.11 µM)
